# Legend:
# Assay type in all cases: cell-based
# [1] = test system: OVACAR-3 (ovarian cancer); test: cells
# Source text: (§1) The dose–response was also studied in the same 60 cancer cell lines, with outstanding results. […] Table 2 summarizes the GI50, TGI, and LC50 values of representative cell lines. Full data mean GI50 graphs are provided in the Supplementary Materials.
# SK-MEL-5 (melanoma) = test: cells
# Source text: as §1
# HCT-116 (colon cancer) = test: cells
# Source text: as §1
# SF-593 (CNS cancer) = test: cells
# Source text: as §1
# UO-31 (renal cancer) = test: cells
# Source text: as §1
# BT-549 (breast cancer) = test: cells
# Source text: as §1
# M14 (melanoma) = test: cells
# Source text: as §1
# NCI-60 cell line panel = test: cells
# Source text: as §1
# COLO-205 (colon cancer) = test: cells
# Source text: as §1
# [2] = test system: MDA-MB-231/ATCC (breast cancer); test: cells
# Source text: as §1
# [3] = test system: MDA-MB-468 (breast cancer); test: cells
# Source text: as §1
# HCT-116 cells (colon) = test: MTT cell viability assay, HCT-116; details: Homo sapiens, HCT-116; 48 h, MTT, mean ± SD; read-out: IC50 HCT-116 (colon)
# Method: Cell lines were purchased from the American Type Culture Collection (ATCC). MCF-7, HTB-54, BEAS-2B and 184B5 cell lines were grown in RPMI 1640 medium (Gibco) supplemented with 10% fetal bovine serum (FBS; Gibco), 100 units/mL penicillin, and […] streptomycin (Gibco). HT-29 and HCT-116 cell lines was cultured in McCoy’s 5A (Gibco), 10% FBS, 100 units/mL penicillin, and 100 μg/mL streptomycin. Cells were maintained at 37 °C and 5% CO2. Culture medium was replaced every three days.
# A cell viability assay of each compound was carried out using an MTT assay. Each selenourea was dissolved in dimethyl sulfoxide (DMSO) at a concentration of 0.01 M. Serial dilutions were prepared with non-supplemented culture medium. Cytotoxic activity of each selenourea was determined at two different concentrations (10 and 50 µM) in MCF-7, HTB-54, and HT-29 cells. In addition, selected compounds were tested at seven different concentrations (0.1, 1, 5, 10, 25, 50, 100 µM) on MCF-7, HT-29, HCT-116, HTB-54, 184B5, and BEAS-2B cells. The number of passages before defrosting the cells was 3, and they were kept under culture up to a maximum of 15.
# Briefly, 1 × 10^4 cells/well were grown in 96-well plates for 24 h. Then, these cells were incubated with either DMSO (negative control) at 5 µM or a different concentration of each tested selenourea for 48 h. A volume of 20 µL of MTT was added 150 min before the termination point to measure cellular viability. After this time, culture medium was removed. The resultant formazan crystals were dissolved in 50 µL of DMSO, and absorbance was measured at 570 nm. Results are expressed as IC50, the half maximal inhibitory concentration. This value was calculated using GraphPad Prism 7 software by nonlinear curve fitting. Furthermore, the selectivity index (SI) was calculated as the ratio of the IC50 values determined for the non-malignant and the tumoral cells (IC50 (184B5)/IC50 (MCF-7) or (IC50 (BEAS-2B)/IC50 (HTB-54). Data were obtained from at least three independent experiments performed in triplicates.
structure (smiles),measurement,setting,value
"COc1ccc(NC(=[Se])NC23CC4CC(CC(C4)C2)C3)cc1 [Compound 6c, N´-adamantyl-N-(4-methoxyphenyl)selenourea]",CC50,"[1]; OVACAR3, read-out: LC50",7.41 µM
same,GI50,"[1]; OVACAR3, OVACAR-3, NCI-60",1.38 µM
same,TGI,"[1]; OVACAR-3, NCI-60",3.24 µM
same,CC50,"SK-MEL-5 (melanoma); Homo sapiens, SK-MEL-5, read-out: LC50",4.27 µM
same,GI50,"SK-MEL-5 (melanoma); Homo sapiens, SK-MEL-5, NCI-60",0.56 µM
same,TGI,"SK-MEL-5 (melanoma); SK-MEL-5, NCI-60",1.78 µM
same,TGI,"HCT-116 (colon cancer); HCT-116, NCI-60",2.75 µM
same,CC50,"HCT-116 (colon cancer); Homo sapiens, HCT-116, read-out: LC50",6.03 µM
same,GI50,"HCT-116 (colon cancer); Homo sapiens, HCT-116, NCI-60",1.29 µM
same,GI50,"SF-593 (CNS cancer); SF-593, NCI-60",1.91 µM
same,TGI,"SF-593 (CNS cancer); SF-593, NCI-60",4.17 µM
same,CC50,SF-593 (CNS cancer); read-out: LC50,9.33 µM
same,LC50 (concentration killing 50% of cells),"UO-31 (renal cancer); Homo sapiens, UO-31, read-out: LC50",9.77 µM
same,GI50,"UO-31 (renal cancer); Homo sapiens, UO-31, NCI-60",1.74 µM
same,TGI,"UO-31 (renal cancer); UO-31, NCI-60",4.07 µM
same,TGI,"BT-549 (breast cancer); BT-549, NCI-60",2.29 µM
same,CC50,"BT-549 (breast cancer); Homo sapiens, BT-549, read-out: LC50",5.62 µM
same,GI50,"BT-549 (breast cancer); Homo sapiens, BT-549, NCI-60",0.87 µM
same,CC50,"M14 (melanoma); Homo sapiens, M14, read-out: LC50",7.94 µM
same,GI50,"M14 (melanoma); Homo sapiens, M14, NCI-60",1.38 µM
same,TGI,"M14 (melanoma); M14, NCI-60",3.31 µM
same,GI50,NCI-60 cell line panel; average for the 60 cell lines,1.49 µM
same,average TGI,NCI-60 cell line panel; average for the 60 cell lines,9.17 µM
same,LC50,NCI-60 cell line panel; read-out: LC50 values against 10 of the NCI60 cancer cell lines,4.27 to 9.33 µM
same,TGI,"COLO-205 (colon cancer); COLO-205, NCI-60",3.98 µM
same,CC50,"COLO-205 (colon cancer); Homo sapiens, COLO 205, read-out: LC50",9.33 µM
same,GI50,"COLO-205 (colon cancer); Homo sapiens, COLO-205, NCI-60",1.66 µM
same,CC50,"[2]; Homo sapiens, MDA-MB-231, read-out: LC50",8.51 µM
same,GI50,"[2]; Homo sapiens, MDA-MB-231/ATCC, NCI-60",1.78 µM
same,TGI,"[2]; MDA-MB-231/ATCC, NCI-60",3.89 µM
same,CC50,"[3]; Homo sapiens, MDA-MB-468, read-out: LC50",8.71 µM
same,GI50,"[3]; Homo sapiens, MDA-MB-468, NCI-60",1.35 µM
same,TGI,"[3]; MDA-MB-468, NCI-60",3.39 µM
same,IC50,HCT-116 cells (colon),3.6 ± 0.74 µM
